Molecular target: HECTD1 (Homo sapiens, UniProt Q9ULT8)
Assay: in-cell competitive QTRP
Type: biochemical
Details: covalent; C1368; […], […] h in HEK293T cells

HECTD1, sequence (Q9ULT8 whole entry): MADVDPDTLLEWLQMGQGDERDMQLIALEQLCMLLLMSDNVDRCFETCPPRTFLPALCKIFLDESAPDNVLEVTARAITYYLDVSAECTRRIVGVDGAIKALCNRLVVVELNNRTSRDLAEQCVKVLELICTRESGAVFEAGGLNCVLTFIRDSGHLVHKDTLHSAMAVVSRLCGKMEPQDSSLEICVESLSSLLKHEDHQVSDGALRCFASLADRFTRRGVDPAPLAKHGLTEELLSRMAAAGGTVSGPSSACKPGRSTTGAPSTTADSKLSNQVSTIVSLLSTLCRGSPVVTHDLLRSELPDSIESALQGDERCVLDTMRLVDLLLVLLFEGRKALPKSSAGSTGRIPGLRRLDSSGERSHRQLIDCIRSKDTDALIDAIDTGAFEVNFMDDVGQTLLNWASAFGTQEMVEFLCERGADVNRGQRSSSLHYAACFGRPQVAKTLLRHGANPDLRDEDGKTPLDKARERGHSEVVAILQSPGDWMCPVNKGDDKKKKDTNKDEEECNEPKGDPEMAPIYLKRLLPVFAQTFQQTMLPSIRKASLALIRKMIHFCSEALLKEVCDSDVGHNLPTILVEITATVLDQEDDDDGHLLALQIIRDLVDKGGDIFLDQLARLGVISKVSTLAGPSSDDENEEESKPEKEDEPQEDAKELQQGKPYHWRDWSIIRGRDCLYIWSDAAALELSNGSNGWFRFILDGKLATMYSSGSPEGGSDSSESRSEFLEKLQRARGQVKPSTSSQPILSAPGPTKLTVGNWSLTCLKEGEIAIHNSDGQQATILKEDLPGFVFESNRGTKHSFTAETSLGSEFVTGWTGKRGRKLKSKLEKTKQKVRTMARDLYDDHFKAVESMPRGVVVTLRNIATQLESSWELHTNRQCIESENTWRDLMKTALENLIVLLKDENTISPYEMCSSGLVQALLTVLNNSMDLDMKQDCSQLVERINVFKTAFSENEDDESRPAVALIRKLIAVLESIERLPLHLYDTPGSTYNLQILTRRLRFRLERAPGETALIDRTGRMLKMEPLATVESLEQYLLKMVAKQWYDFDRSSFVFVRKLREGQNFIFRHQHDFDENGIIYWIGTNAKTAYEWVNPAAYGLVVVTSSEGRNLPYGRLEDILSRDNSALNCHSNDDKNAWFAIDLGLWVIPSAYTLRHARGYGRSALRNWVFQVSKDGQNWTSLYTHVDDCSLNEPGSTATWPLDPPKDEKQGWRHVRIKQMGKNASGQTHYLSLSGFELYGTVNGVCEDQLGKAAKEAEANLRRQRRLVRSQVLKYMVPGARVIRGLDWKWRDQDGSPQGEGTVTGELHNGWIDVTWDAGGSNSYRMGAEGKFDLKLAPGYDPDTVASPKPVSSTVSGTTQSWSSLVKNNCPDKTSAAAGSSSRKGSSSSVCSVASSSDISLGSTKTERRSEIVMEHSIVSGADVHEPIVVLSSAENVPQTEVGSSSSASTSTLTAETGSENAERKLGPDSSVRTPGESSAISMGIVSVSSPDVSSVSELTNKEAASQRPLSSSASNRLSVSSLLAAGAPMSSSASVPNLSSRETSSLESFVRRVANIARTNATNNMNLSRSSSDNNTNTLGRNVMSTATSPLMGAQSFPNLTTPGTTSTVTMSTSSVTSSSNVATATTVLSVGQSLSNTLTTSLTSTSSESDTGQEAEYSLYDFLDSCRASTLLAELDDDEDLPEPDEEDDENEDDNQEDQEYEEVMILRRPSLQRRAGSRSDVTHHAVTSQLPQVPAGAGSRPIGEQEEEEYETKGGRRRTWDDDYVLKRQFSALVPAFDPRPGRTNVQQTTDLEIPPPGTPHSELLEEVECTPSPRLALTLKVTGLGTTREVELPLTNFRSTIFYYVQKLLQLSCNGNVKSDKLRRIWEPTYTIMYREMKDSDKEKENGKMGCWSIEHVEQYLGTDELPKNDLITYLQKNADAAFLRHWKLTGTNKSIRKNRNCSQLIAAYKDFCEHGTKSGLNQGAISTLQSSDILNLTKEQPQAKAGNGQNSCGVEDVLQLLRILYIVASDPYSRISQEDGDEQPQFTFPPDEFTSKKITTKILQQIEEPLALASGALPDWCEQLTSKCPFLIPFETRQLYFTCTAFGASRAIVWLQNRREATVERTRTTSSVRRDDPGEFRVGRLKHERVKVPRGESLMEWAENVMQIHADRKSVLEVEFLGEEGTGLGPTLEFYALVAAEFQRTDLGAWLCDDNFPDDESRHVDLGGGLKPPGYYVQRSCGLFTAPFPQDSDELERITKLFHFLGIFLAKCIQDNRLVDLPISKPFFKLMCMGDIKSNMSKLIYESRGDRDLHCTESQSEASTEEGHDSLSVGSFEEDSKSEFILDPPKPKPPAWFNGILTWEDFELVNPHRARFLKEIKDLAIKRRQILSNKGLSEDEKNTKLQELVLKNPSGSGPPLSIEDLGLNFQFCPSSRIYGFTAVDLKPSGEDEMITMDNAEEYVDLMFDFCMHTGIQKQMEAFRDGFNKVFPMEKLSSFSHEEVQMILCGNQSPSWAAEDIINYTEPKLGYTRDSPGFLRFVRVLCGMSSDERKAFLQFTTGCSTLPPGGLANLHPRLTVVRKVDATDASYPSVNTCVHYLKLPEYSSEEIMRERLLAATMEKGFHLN

**Q.** Which RH/L does the source give for `C=C(CC)C(=O)c1ccc(OCC(=O)O)c(Cl)c1Cl` [etacrynic acid] here?
**A.** the etacrynic acid-engaged C1368 of HECTD1 is spatially distant from the active site
